Our source for the EC50, Efficiency and Emax values is patent publication US11472803B2, “7-substituted 1-aryl-naphthyridine-3-carboxylic acid amides and use thereof” (Bayer Aktiengesellschaft, priority 2016, dated 2022).

The target of the assay is T1, human M2 receptor (Homo sapiens, UniProt P08172).
T1 construct: expressed in transfected cells; host or cells: CHO-DUKX (CHO-DUKX-M2-GIRK)
T1 sequence (P08172 1-466): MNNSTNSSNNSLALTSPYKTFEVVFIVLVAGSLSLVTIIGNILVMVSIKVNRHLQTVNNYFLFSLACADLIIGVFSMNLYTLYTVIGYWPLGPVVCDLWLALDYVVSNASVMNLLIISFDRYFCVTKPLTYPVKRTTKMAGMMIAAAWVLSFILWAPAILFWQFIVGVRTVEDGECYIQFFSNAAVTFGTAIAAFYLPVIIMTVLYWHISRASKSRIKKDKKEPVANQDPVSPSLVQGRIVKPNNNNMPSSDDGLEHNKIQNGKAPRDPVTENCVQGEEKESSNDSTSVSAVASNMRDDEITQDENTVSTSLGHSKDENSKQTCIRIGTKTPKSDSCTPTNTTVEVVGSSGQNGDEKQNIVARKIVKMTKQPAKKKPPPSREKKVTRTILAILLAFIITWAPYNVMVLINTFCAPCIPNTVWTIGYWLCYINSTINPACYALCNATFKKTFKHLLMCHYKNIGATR
As to the kind of experiment: Functional M2-GIRK1/4 activation test: allosteric potency (EC50) and efficiency at EC20 acetylcholine. Format: cell-based. To be noted: CHO-DUKX-M2-GIRK cells; for EC50: voltage-sensitive dye, acetylcholine at EC20, in some cases mean of two or more determinations; for Efficiency / Emax: boosting of the acetylcholine effect at EC20 acetylcholine concentration. The gist of the method: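 CHO-DUKX cells stably expressing human M2 and GIRK1/4; membrane potential tracked with voltage-sensitive dye at room temperature. Compound added 50 s before acetylcholine at its EC20, then hyperpolarization read 60 s. EC50 (allosteric potency) and efficiency (boost of EC20 ACh effect) from 4-parameter Hill fit.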

What is called EC50 is the concentration needed to bring the measured effect to its halfway point. Higher therefore signals weaker potency. In the case of `CCC(COC(F)(F)F)NC(=O)c1cn(-c2c(F)cc(F)cc2F)c2nc(N3C[C@@H](O)[C@@H](O)C3)c(F)cc2c1=O` (single isomer, unassigned) [Example 97], the EC50 was determined as 13 nM and the Efficiency is 97%.
`CC(C)(C)C(NC(=O)c1cn(-c2c(F)cc(F)cc2F)c2nc(N3CC4(COC4)C3)c(F)cc2c1=O)C(F)(F)C(F)(F)F` (single isomer, unassigned) [Example 215, 6-Fluoro-7-(2-oxa-6-azaspiro[3.3]hept-6-yl)-4-oxo-N-[1,1,1,2,2-pentafluoro-4,4-dimethylpentan-3-yl]-1-(2,4,6-trifluorophenyl)-1,4-dihydro-1,8-naphthyridine-3-carboxamide] gave an EC50 of 8.6 nM and an Efficiency of 100%.
By Emax is commonly meant the size of the effect at its maximum, as opposed to the concentration needed. Molecule `CC(C)C(NC(=O)c1cn(-c2c(F)cc(F)cc2F)c2nc(N3C[C@@H](O)[C@@H](O)C3)c(F)cc2c1=O)C(C)C` [Example 103, 7-[(3R,4S)-3,4-Dihydroxypyrrolidin-1-yl]-N-(2,4-dimethylpentan-3-yl)-6-fluoro-4-oxo-1-(2,4,6-trifluorophenyl)-1,4-dihydro-1,8-naphthyridine-3-carboxamide] displayed a half-maximal effective concentration (EC50) of 8.1 nM and an Emax of 100%.
`COC[C@@H](NC(=O)c1cn(-c2c(F)cc(F)cc2F)c2nc(N3C[C@@H](O)[C@H](O)C3)c(F)cc2c1=O)C(C)C` [Example 17, 7-[(3R,4R)-3,4-dihydroxypyrrolidin-1-yl]-6-fluoro-N-[(2S)-1-methoxy-3-methylbutan-2-yl]-4-oxo-1-(2,4,6-trifluorophenyl)-1,4-dihydro-1,8-naphthyridine-carboxamide] came in with an EC50 of 79.5 nM and an Emax of 83%.
For `O=C(N[C@@H](C1CC1)C(F)(F)F)c1cn(-c2c(F)cc(F)cc2Cl)c2nc(N3C[C@@H](O)[C@H](O)C3)c(F)cc2c1=O` [Example 42, 1-(2-chloro-4,6-difluorophenyl)-N-[(1S)-1-cyclopropyl-2,2,2-trifluoroethyl]-7-[(3R,4R)-3,4-dihydroxypyrrolidin-1-yl]-6-fluoro-4-oxo-1,4-dihydro-1,8-naphthyridine-3-carboxamide], in that order: 4 nM and 100%.
Consider `CC(C)C(NC(=O)c1cn(-c2c(F)cc(F)cc2F)c2nc(N3C[C@@H](O)[C@@H](O)C3)c(F)cc2c1=O)C(F)(F)F` (single isomer, unassigned) [Example 138], for which the EC50 turned out to be 7.6 nM and the Efficiency is recorded as 84%.
`CCC(CC)(CC)NC(=O)c1cn(-c2c(F)cc(F)cc2F)c2nc(N3C[C@@H](O)[C@@H](O)C3)c(F)cc2c1=O` [Example 77, 7-[(3R,4S)-3,4-Dihydroxypyrrolidin-1-yl]-N-(3-ethylpentan-3-yl)-6-fluoro-4-oxo-1-(2,4,6-tri-fluorophenyl)-1,4-dihydro-1,8-naphthyridine-3-carboxamide] showed an EC50 of 1.6 nM and an Emax of 100%.
For `COC(=O)C12CCC(NC(=O)c3cn(-c4c(F)cc(F)cc4F)c4nc(N5C[C@@H](O)[C@H](O)C5)c(F)cc4c3=O)(CC1)C2` [Example 86, Methyl 4-[({7-[(3R,4R)-3,4-dihydroxypyrrolidin-1-yl]-6-fluoro-4-oxo-1-(2,4,6-trifluoro-phenyl)-1,4-dihydro-1,8-naphthyridin-3-yl}carbonyl)amino]bicyclo[2.2.1]heptane-1-carboxylate], in that order: 14 nM and 95%.
`CC(C)C(COC(F)(F)F)NC(=O)c1cn(-c2c(F)cc(F)cc2F)c2nc(N3C[C@@H](O)[C@H](O)C3)c(F)cc2c1=O` (mixture of isomers) [Example 233, 7-[(3R,4R)-3,4-dihydroxypyrrolidin-1-yl]-6-fluoro-N-[3-methyl-1-(trifluoromethoxy)butan-2-yl]-4-oxo-1-(2,4,6-trifluorophenyl)-1,4-dihydro-1,8-naphthyridine-3-carboxamide] registered an EC50 of 2.3 nM and an Emax of 100%.
For `O=C(N[C@@H](C1CC1)C(F)(F)F)c1cn(-c2c(F)cc(F)cc2F)c2nc(N3C[C@@H](O)CC3=O)c(F)cc2c1=O` [Example 59, N-[(1S)-1-Cyclopropyl-2,2,2-trifluoroethyl]-6-fluoro-7-[(4S)-4-hydroxy-2-oxopyrrolidin-1-yl]-4-oxo-1-(2,4,6-trifluorophenyl)-1,4-dihydro-1,8-naphthyridine-3-carboxamide], in that order: 91.5 nM and 97%.
For `CCC(NC(=O)c1cn(-c2c(F)cc(F)cc2F)c2nc(N3C[C@@H](O)[C@H](O)C3)c(Br)cc2c1=O)C(F)(F)C(F)(F)F` (mixture of isomers) [Example 157, 6-Bromo-7-[(3R,4R)-3,4-dihydroxypyrrolidin-1-yl]-4-oxo-N-[1,1,1,2,2-pentafluoropentan-3-yl]-1-(2,4,6-trifluorophenyl)-1,4-dihydro-1,8-naphthyridine-3-carboxamide], in that order: 2.6 nM and 100%.
The corresponding values for `O=C(NC12CC(C1)C2)c1cn(-c2c(F)cccc2F)c2nc(N3C[C@@H](O)[C@H](O)C3)c(F)cc2c1=O` [Example 5, N-(Bicyclo[1.1.1]pent-1-yl)-1-(2,6-difluorophenyl)-7-[(3R,4R)-3,4-dihydroxypyrrolidin-1-yl]-6-fluoro-4-oxo-1,4-dihydro-1,8-naphthyridine-3-carboxamide] are 69 nM and 99%.
For the molecule `CC(C)(NC(=O)c1cn(-c2c(F)cc(F)cc2F)c2nc(N3CC[C@H](O)[C@@H]3CO)c(F)cc2c1=O)C(F)(F)C(F)(F)F` [Example 193, 6-Fluoro-7-[(2S,3S)-3-hydroxy-2-(hydroxymethyl)pyrrolidin-1-yl]-4-oxo-N-(3,3,4,4,4-pentafluoro-2-methylbutan-2-yl)-1-(2,4,6-trifluorophenyl)-1,4-dihydro-1,8-naphthyridine-3-carboxamide], the response was half-maximal at 32.5 nM (EC50) and the maximal response (Emax) came out at 100%.
For `O=C(N[C@@H](C1CC1)C(F)(F)F)c1cn(-c2c(F)cc(F)cc2F)c2nc(N3C[C@@H](O)[C@@H](O)C3)c(F)cc2c1=O` [Example 101, N-[(1S)-1-Cyclopropyl-2,2,2-trifluoroethyl]-7-[(3R,4S)-3,4-dihydroxypyrrolidin-1-yl]-6-fluoro-4-oxo-1-(2,4,6-trifluorophenyl)-1,4-dihydro-1,8-naphthyridine-3-carboxamide], in that order: 13.5 nM and 100%.
The corresponding values for `CC(NC(=O)c1cn(-c2c(F)cc(F)cc2F)c2nc(N3CCC4(C3)NC(=O)NC4=O)c(F)cc2c1=O)C(F)(F)C(F)(F)F` (stereo not drawn) [Example 235, 7-(2,4-Dioxo-1,3,7-triazaspiro[4.4]non-7-yl)-6-fluoro-4-oxo-N-[3,3,4,4,4-pentafluorobutan-2-yl]-1-(2,4,6-trifluorophenyl)-1,4-dihydro-1,8-naphthyridine-3-carboxamide] are 4 nM and 92%.
`CC(NC(=O)c1cn(-c2c(F)cc(F)cc2F)c2nc(N3C[C@@H](O)[C@@H](O)C3)c(F)cc2c1=O)C(F)(F)C(F)(F)F` (mixture of isomers) [Example 92, 7-[(3R,4S)-3,4-Dihydroxypyrrolidin-1-yl]-6-fluoro-4-oxo-N-[3,3,4,4,4-pentafluorobutan-2-yl]-1-(2,4,6-trifluorophenyl)-1,4-dihydro-1,8-naphthyridine-3-carboxamide] gave an Emax of 100%.
As for `CC(C)(NC(=O)c1cn(-c2c(F)cc(F)cc2Cl)c2nc(N3C[C@@H](O)[C@H](O)C3)c(F)cc2c1=O)C(F)F` [Example 141, 1-(2-Chloro-4,6-difluorophenyl)-N-(1,1-difluoro-2-methylpropan-2-yl)-7-[(3R,4R)-3,4-dihydroxypyrrolidin-1-yl]-6-fluoro-4-oxo-1,4-dihydro-1,8-naphthyridine-3-carboxamide], the response was half-maximal at 3.4 nM (EC50) and the Emax stood at 97%.
For `O=C(NCc1c(Cl)cccc1Cl)c1cn(-c2c(F)cc(F)cc2F)c2nc(N3C[C@@H](O)[C@H](O)C3)c(F)cc2c1=O` [Example 132, N-(2,6-Dichlorobenzyl)-7-[(3R,4R)-3,4-dihydroxypyrrolidin-1-yl]-6-fluoro-4-oxo-1-(2,4,6-tri-fluorophenyl)-1,4-dihydro-1,8-naphthyridine-3-carboxamide], in that order: 10 nM and 99%.
As for `CCC(COC(F)(F)F)NC(=O)c1cn(-c2c(F)cc(F)cc2F)c2nc(N3C[C@@H](O)[C@H](O)C3)c(F)cc2c1=O` (stereo partly drawn) [Example 26, 7-[(3R,4R)-3,4-dihydroxypyrrolidin-1-yl]-6-fluoro-4-oxo-N-[(2)-1-(trifluoromethoxy)butan-2-yl]-1-(2,4,6-trifluorophenyl)-1,4-dihydro-1,8-naphthyridine-3-carboxamide], it took 4.03 nM to reach a half-maximal effect (EC50) and the Emax was 100%.
The corresponding values for `CC(C)[C@H](C)NC(=O)c1cn(-c2c(F)cc(F)cc2F)c2nc(N3CC[C@H](O)C3)c(F)cc2c1=O` [Example 119, 6-Fluoro-7-[(3S)-3-hydroxypyrrolidin-1-yl]-N-[(2S)-3-methylbutan-2-yl]-4-oxo-1-(2,4,6-tri-fluorophenyl)-1,4-dihydro-1,8-naphthyridine-3-carboxamide] are 8.7 nM and 100%.
